Measured values reported in patent US9426950B2, “Production of Deschampsia antartica in bioreactors” (priority 2012, dated 2016).

Key:
D. antarctica explants [1] = assay: Effect of growth regulators on D. antarctica's morphogenic response and biomass production in bioreactors (SIT); assay type: in vivo, Deschampsia antarctica; conditions: for type of morphogenic response (roots / shoots): AIB with BAP or alone, BAP alone or ratio favoring BAP; for reproduction rate / organogenic response: SIT method (FIG. 7); for survival of explants compared with the control treatment: growth regulators in the culture medium, bioreactors (FIG. 6); for biomass production: treatments supplemented with growth regulators (FIG. 9)
From the text: In order to determine the appropriate composition of growth regulators for explant propagation and to establish the differences in the physical state of the liquid culture medium compared to the semisolid medium, a comparative study was done on the effect of growth regulators on the culture medium using the SIT method and the conventional propagation method, SSS. To determine the growth regulators' effect on D. antarctica's morphogenic response and biomass formation, a study was done on the effect of combining the cytokinin 6-benzylaminopurine (6-BAP) (0.0; 0.5; 1.0; and 3.0 mgL-1) with the auxin indolbutyric acid (AIB) (0.0; 0.1; 0.25; and 0.5 mgL^−1). Likewise, a study was done of the effect of a set concentration of gibberellic acid (3 mgL-1) combined with the auxins and cytokinins and their isolated effect in the culture medium. Gibberellic acid is associated with the elongation of tissues, and it could play a significant role in biomass growth.
For each bioreactor, 50 to 60 explants with the phenotype characteristics indicated in the osmotic agent test were used in 1000 ml of nutritive medium for each condition, keeping an initial treatment weight of 2 grams. For the SSS method, 25 explants were used in Petri dishes with 40 ml of a medium gelled with agar (Gelzan′) at a rate of 2.5 gL^−1.
A 12-hour immersion frequency was used, with immersion times of 3 minutes and aeration times of 5 minutes.
For this test, the total weight of inoculated biomass was adjusted at 2.0 g per bioreactor. Therefore, the number of plants per bioreactor varied, and the distribution of weight and size during inoculation was random. The experimental unit was the explant.
The effect of the growth regulators was evaluated with the following variables: Increase in fresh weight (FW) per treatment, increase in fresh weight/explant, reproduction rate, survival of explants, and degree of oxidation; all of the same criteria used in the test with osmotic agents.
A sample of 25 explants was taken for each treatment in order to measure the different variables.

D. antarctica explants [2] = assay: Effect of osmoregulating agents on D. antarctica explants cultivated in temporary immersion bioreactors; assay type: in vivo; conditions: glucose 5 gL−1; mannitol 5 gL−1; PEG 5 gL−1 and 20 gL−1 (FIG. 4)
D. antarctica explants [3] = assay: as above; assay type: in vivo; conditions: for fresh weight: glucose 5 gL−1 and 20 gL−1, sodium chloride 5 gL−1 (FIG. 5); for degree of oxidation (scale of Table 1): in vivo
From the text: The Deschampsia antarctica plants were reproduced in bioreactors with a liquid culture medium. The nutritive growth conditions were formulated using the inorganic salts proposed by (Murashige, 1973) (MS), supplemented with saccharose 30 gL^−1. In order to determine the conditions needed to obtain high growth and morphophysiological development rates for the tissues, an evaluation was done of the immersion frequency conditions and the addition of osmotic and growth regulating agents.
The regulation of the culture medium's hydric potential determines the quality of the morphogenic response of the plants being cultivated in vitro, especially in systems using liquid culture media (Hua et at, 2010; Stanly et al., 2010). The experiment consisted of evaluating the effect of osmoregulating agents at different concentrations [mannitol (10 and 20 gL-1), glucose (5 and 20 gL-1), polyethylene glycol (5 and 10 gL^−1), and NaCl (5, 10, and 20 gL-1)] on the morphogenic response and biomass production of D. antarctica.
In each bioreactor, 100 plants from the semisolid culture (SSS) that were more than 2 cm tall, with well-developed, expanded leaves, were inoculated in triplicate. The dead leaves and oxidized tissue that grows around the crown of the plants were removed. The bioreactors' initial volume was adjusted to 1000 ml per cultivation jar. A 12-hour immersion frequency was used, with an immersion time of 300 seconds and an aeration time of 60 minutes.
The average initial weight of the explants in each treatment was taken. The repetitions were distributed randomly in the culture trays.
The effect of the osmoregulators was evaluated with the following variables: Increase in fresh weight (FW) per treatment, increase in fresh weight per explant, multiplication rate, explant survival rate, and degree of oxidation.
To calculate survival, live explants were assigned a value of 1, while dead explants were assigned a value of 0. The data was entered into a double-entry matrix where the osmoregulator-type factor is compared to the survival variable. A scale of the explants' damage from phenolization was developed to calculate the degree of oxidation, and is described in Table 1.
The degree of oxidation was calculated using the Townsend and Neuberger formula (1943), which considers the frequency and intensity with which the explant damage occurs, using the equation:
[formula] Where: • P=weighted degree of severity of oxidation • n=number of explants for each category in the scale • v=numerical value of each category • CM=largest category • N=total number of explants in the sample
The percentage of explants oxidized in treatment was also calculated, using the equation:
[formula] Where: • % O=percentage of explants oxidized in each treatment • EO=number of oxidized explants in the sample • ET=total number of explants evaluated in the sample
To determine the average increase in fresh weight (IFW) in each treatment, the initial weight of the inoculated explants in each bioreactor was taken (including an experimental unit) and then averaged. The fresh weight data was collected at the end of each repetition in each treatment. The increase in fresh weight was calculated using the equation: IFW=FWf−FWo Equation 3 Where: • IFW=average fresh weight increase in each treatment • FWf=average final fresh weight of the biomass in each treatment • FWo=average initial fresh weight of the biomass in each treatment
To determine the average fresh weight increase per explant (IFWe) for each treatment, each explant was measured at the beginning and end of the test for each repetition, and the averages were calculated. The fresh weight increase was calculated using the equation: IFWe=FWef−FWeo Equation 4 Where: • IFWe=average fresh weight increase per explant • FWef=average final fresh weight of the biomass in each bioreactor • FWeo=average initial fresh weight of the biomass in each bioreactor. […]

| Structure (SMILES) | type of morphogenic response (roots / shoots) (D. antarctica explants [1]) | reproduction rate / organogenic response (D. antarctica explants [1]) | survival of explants compared with the control treatment (D. antarctica explants [1]) | biomass production (D. antarctica explants [1]) | reproduction rate (D. antarctica explants [2]) | fresh weight (D. antarctica explants [3]) | degree of oxidation (scale of Table 1) (D. antarctica explants [3]) | further results |
| --- | --- | --- | --- | --- | --- | --- | --- | --- |
| O=C(O)CCCc1c[nH]c2ccccc12 [AIB, indolbutyric acid] | induced root formation | did not have a significant effect on the reproduction rate | Neither the addition of AIB or BAP, nor the combination of these growth regulators, significantly increased the survival | increased significantly | – | – | – | – |
| c1ccc(CNc2ncnc3nc[nH]c23)cc1 [BAP, 6-benzylaminopurine] | induced only shoot formation or the development of aerial biomass | sufficient to induce efficient organogenic responses | Neither the addition of AIB or BAP, nor the combination of these growth regulators, significantly increased the survival | increased significantly | – | – | – | – |
| C=C1C[C@]23C[C@@]1(O)CC[C@H]2[C@@]12C=C[C@H](O)[C@@](C)(C(=O)O1)[C@H]2[C@@H]3C(=O)O [GA3, gibberellic acid] | – | significantly reduced the reproduction rate | significantly lower than the control treatment | – | – | – | – | – |
| O=C[C@H](O)[C@@H](O)[C@H](O)[C@H](O)CO [glucose] | – | – | – | – | greatest | increased significantly | degree 1 | survival rate (D. antarctica explants [3]; glucose at 5 gL−1, temporary immersion bioreactors): 100%; reduction of the explants' survival rate (D. antarctica explants [3]; glucose concentration increased to 20 gL-1): up to 50%; explants' growth (D. antarctica explants [3]; increased concentrations of glucose): did not significantly affect the explants' growth |
| OC[C@@H](O)[C@@H](O)[C@H](O)[C@H](O)CO [mannitol] | – | – | – | – | statistically different from the control treatment | – | degree 1 | – |
| [Cl-].[Na+] [sodium chloride] | – | – | – | – | – | increased significantly | – | decrease of fresh weight (D. antarctica explants [3]; increased concentration of sodium chloride (FIG. 5)): 60%; survival of the explants (D. antarctica explants [3]; three concentrations of sodium chloride studied (5, 10, 20 gL-1)): significantly affected the survival of the explants |
